Assay results from paper PMC11149885 (PLOS ONE, 2024).
“And” between values parts separate entries of the source, which are not always exact repeats. Identical values can stand only once.

Legend:
TIE2 [1] = target: T1, TIE2 (Homo sapiens, UniProt Q02763); test: HotSpot kinase screen; format: biochemical; parameters: purchased Reaction Biology Corporation (contract assay); conditions: 1uM TKI, 10μM ATP
VEGFR1 [2] = target: T2, VEGFR1 (Homo sapiens, UniProt P17948); test: HotSpot kinase screen; format: biochemical; parameters: purchased Millipore Corporation (Dundee, Scotland) or Reaction Biology Corporation (contract assay); conditions: 10μM ATP
T2 sequence (P17948 27-1338): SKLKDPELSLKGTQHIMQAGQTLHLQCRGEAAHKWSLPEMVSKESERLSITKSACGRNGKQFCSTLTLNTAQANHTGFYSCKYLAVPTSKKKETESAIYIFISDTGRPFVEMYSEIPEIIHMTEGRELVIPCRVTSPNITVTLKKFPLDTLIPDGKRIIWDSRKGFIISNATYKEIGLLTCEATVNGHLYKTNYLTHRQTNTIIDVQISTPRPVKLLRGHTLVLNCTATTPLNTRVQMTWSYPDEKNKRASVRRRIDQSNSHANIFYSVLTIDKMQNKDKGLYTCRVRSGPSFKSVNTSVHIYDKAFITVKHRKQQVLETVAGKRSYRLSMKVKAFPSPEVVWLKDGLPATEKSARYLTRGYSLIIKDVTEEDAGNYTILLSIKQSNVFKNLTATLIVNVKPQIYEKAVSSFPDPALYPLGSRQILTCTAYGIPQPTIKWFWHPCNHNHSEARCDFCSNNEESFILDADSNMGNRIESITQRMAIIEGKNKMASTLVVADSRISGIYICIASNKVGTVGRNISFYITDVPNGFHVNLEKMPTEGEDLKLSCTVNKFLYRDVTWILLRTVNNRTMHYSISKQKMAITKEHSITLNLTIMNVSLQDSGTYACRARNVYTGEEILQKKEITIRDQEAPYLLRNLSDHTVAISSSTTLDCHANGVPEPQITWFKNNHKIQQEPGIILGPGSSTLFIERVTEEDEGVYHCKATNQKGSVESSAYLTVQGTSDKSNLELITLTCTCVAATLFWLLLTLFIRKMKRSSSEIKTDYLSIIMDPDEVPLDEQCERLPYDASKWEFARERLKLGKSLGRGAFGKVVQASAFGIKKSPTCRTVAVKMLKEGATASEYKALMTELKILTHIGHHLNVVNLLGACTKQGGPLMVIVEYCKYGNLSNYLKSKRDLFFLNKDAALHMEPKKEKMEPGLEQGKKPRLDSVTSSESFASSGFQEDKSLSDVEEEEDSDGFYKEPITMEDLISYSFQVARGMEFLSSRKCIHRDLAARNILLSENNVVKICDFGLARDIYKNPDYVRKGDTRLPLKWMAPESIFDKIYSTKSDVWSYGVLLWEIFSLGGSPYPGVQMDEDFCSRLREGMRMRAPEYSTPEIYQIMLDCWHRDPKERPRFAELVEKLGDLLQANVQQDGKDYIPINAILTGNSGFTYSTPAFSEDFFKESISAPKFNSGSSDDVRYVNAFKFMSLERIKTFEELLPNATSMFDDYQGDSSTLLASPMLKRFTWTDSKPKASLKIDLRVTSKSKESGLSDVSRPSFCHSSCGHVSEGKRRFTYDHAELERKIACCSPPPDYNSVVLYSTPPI
Method: (§1) Measurement of kinase activity was performed by Reaction Biology Corporation (Reaction Biology Corporation, Malvern, PA), using the HotSpot™ assay. The screen focused on RTKs reported in the literature to play a major role in the regulation of angiogenesis (VEGFR1, VEGFR2, and VEGFR3; fibroblast growth factor receptor [FGFR] 1, 2, and 3; and platelet-derived growth factor receptor beta [PDGFRβ]) as well as an RTK essential for maintaining blood vessel stability (TIE2). For the profiling, specific kinase/substrate pairs and required cofactors were prepared in a reaction buffer (20mM Hepes [pH 7.5], 10mM MgCl2, 1mM EGTA, 0.02% Brij35, 0.02 mg/mL BSA, 0.1mM Na3VO4, 2mM DTT, 1% dimethyl sulfoxide [DMSO]). TKI compounds were diluted to 10μM and 1μM concentrations for the screens and after addition to the reaction buffer incubated for 20 minutes, followed by the addition of a mixture of ATP (Sigma, St. Louis, MO) and ^33P-ATP (Perkin Elmer, Waltham, MA) to a final ATP concentration of 10μM. Reactions were carried out at room temperature for 2 hours, followed by spotting of the reactions onto P81 ion exchange filter paper (Whatman Inc., Piscataway, NJ). Unbound phosphate was removed by extensive washing of the filters. […] Kinome TREEspot images representing levels of inhibition were prepared using Kinome Mapper (https://www.reactionbiology.com/resources/tools/kinase-mapper).

FGFR1 = target: T3, FGFR1 (Homo sapiens, UniProt P11362); test: HotSpot kinase screen; format: biochemical; conditions: 10μM ATP
T3 construct: purchased Reaction Biology Corporation (contract assay)

PDGFRβ = target: T4, PDGFRβ (Homo sapiens, UniProt P09619); test: HotSpot kinase screen; format: biochemical; conditions: 10μM ATP
T4 construct: purchased Reaction Biology Corporation (contract assay)

VEGFR1 [3] = target: T2, VEGFR1; test: Ten-dose IC50 measurement; conditions: 10μM ATP
FGFR3 = target: T5, FGFR3 (Homo sapiens, UniProt P22607); test: HotSpot kinase screen; format: biochemical; conditions: 1uM TKI, 10μM ATP
T5 construct: purchased Reaction Biology Corporation (contract assay)

TIE2 [4] = target: T1, TIE2; test: Ten-dose IC50 measurement; conditions: 10μM ATP
FGFR2 = target: T6, FGFR2 (Homo sapiens, UniProt P21802); test: HotSpot kinase screen; format: biochemical; conditions: 10μM ATP
T6 construct: purchased Reaction Biology Corporation (contract assay)
T6 sequence (P21802 22-821): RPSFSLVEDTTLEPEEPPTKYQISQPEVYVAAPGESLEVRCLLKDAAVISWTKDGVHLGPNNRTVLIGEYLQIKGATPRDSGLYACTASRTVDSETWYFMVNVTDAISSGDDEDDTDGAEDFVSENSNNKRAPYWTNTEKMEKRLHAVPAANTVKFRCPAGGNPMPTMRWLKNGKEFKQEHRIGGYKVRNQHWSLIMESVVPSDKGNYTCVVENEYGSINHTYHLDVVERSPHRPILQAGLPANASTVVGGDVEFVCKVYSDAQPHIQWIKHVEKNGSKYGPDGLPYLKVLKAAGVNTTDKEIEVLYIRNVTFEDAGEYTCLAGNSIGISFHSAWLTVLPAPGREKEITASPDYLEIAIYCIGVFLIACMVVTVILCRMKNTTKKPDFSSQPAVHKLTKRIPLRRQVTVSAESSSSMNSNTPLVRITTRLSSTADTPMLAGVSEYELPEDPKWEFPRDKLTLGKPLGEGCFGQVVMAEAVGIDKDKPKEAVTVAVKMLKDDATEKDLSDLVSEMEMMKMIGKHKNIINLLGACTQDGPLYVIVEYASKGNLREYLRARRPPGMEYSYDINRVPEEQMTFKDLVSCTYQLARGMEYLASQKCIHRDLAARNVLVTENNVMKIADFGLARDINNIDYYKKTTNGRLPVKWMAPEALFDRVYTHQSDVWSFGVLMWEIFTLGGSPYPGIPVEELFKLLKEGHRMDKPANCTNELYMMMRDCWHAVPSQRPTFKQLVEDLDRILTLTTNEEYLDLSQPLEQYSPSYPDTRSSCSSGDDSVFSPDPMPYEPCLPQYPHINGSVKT
Method: as §1

VEGFR3 [5] = target: T7, VEGFR3 (Homo sapiens, UniProt P35916); test: HotSpot kinase screen; format: biochemical; conditions: 10μM ATP
T7 construct: purchased Millipore Corporation (Dundee, Scotland) or Reaction Biology Corporation (contract assay)
T7 sequence (P35916 25-1363): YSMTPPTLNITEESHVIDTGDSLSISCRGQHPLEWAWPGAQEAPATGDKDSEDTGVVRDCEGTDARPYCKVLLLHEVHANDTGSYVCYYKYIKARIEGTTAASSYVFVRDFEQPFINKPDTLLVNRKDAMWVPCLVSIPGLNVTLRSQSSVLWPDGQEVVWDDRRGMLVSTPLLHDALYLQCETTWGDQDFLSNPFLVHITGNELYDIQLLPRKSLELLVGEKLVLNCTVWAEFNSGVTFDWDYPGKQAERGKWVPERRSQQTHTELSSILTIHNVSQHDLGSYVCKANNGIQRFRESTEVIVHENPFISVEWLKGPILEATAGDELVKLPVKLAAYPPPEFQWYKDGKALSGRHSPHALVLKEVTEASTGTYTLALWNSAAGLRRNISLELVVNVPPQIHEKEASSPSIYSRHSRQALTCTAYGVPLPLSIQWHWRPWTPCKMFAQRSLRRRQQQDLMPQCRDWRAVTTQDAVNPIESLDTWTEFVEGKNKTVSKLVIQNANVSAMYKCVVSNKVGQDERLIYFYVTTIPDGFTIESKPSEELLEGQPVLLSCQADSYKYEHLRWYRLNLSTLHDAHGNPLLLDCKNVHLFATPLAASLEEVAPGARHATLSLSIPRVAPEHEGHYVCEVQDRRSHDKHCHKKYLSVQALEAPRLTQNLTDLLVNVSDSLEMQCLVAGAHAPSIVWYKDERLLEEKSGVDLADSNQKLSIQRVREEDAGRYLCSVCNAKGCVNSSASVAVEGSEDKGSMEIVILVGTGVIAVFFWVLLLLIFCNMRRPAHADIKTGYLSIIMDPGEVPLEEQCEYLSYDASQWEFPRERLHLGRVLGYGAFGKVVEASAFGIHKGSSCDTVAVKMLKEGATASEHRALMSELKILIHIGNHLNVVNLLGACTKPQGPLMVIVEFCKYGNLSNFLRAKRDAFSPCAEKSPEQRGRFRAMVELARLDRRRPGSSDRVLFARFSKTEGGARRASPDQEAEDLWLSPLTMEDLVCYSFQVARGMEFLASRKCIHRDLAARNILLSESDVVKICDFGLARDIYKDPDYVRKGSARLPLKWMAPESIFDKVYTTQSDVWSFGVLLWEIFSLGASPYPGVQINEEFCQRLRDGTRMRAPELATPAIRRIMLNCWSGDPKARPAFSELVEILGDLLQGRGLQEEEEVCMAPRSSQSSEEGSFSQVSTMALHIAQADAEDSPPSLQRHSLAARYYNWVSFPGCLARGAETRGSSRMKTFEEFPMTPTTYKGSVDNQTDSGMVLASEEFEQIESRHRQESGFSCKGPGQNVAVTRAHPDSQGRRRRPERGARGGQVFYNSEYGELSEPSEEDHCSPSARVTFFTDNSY
Method: as §1

[6] = system: VEGF-A–induced sprouting of HUVECs; test: HUVEC spheroid sprouting assay; format: cell-based, human; conditions: for cumulative sprout length per spheroid (CSL), mean: 25 ng/mL VEGF-165, 24 hours
Method: The three TKI compounds were tested by Reaction Biology Europe (Freiburg, Germany) in the spheroid-based cellular angiogenesis assay to determine their effect on VEGF-A–induced sprouting of HUVECs. Primary HUVECs from pooled donors at passage 3 to 4 (PromoCell, Heidelberg, Germany) were grown in endothelial cell growth and basal medium (ECGM/ECBM, PromoCell). Test compounds were prepared as 100-fold concentrated stock solutions in DMSO and pre-diluted in basal medium. HUVECs were stimulated using 25 ng/mL VEGF-165 (Reaction Biology Europe, Freiburg, Germany) pre-diluted in basal medium.
Spheroids were prepared as described by pipetting 400 HUVECs in a hanging drop on plastic dishes to allow overnight spheroid aggregation. Fifty HUVEC spheroids were seeded in 0.9 mL of a collagen gel and pipetted into individual wells of a 24-well plate to allow polymerization. Test compounds and VEGF-165 were added after 30 minutes by pipetting 100 μL of a ten-fold concentrated solution onto the polymerized gel. Plates were incubated at 37°C for 24 hours, and cells were fixed by adding 4% paraformaldehyde (Roth, Karlsruhe, Germany). Sprouting intensity of HUVEC spheroids treated with the test samples was quantitated using an image analysis system to determine the cumulative sprout length (CSL) per spheroid. Images of single spheroids were captured using an inverted microscope and the digital imaging software NIS-Elements BR 3.0 (Nikon). Spheroid pictures were uploaded to Wimasis (www.wimasis.com) for image analysis. The CSL of each spheroid was determined using the imaging analysis tool WimSprout. The mean CSL of ten randomly selected spheroids was analyzed as an individual data point.

[7] = system: VEGF-induced angiogenesis on the CAM; test: Gelatin sponge chick chorioallantoic membrane (CAM) assay; conditions: for Angiogenesis - Vessel thickness score, Mean: score 0-3; for Angiogenesis - Vessel thickness score, individual egg: score 0-3, one value per egg
VEGFR3 [8] = target: T7, VEGFR3; test: Ten-dose IC50 measurement; format: biochemical; conditions: 10μM ATP
[9] = 0.5 mg/kg bevacizumab (20.15μM)

T1 sequence (Q02763 23-1124): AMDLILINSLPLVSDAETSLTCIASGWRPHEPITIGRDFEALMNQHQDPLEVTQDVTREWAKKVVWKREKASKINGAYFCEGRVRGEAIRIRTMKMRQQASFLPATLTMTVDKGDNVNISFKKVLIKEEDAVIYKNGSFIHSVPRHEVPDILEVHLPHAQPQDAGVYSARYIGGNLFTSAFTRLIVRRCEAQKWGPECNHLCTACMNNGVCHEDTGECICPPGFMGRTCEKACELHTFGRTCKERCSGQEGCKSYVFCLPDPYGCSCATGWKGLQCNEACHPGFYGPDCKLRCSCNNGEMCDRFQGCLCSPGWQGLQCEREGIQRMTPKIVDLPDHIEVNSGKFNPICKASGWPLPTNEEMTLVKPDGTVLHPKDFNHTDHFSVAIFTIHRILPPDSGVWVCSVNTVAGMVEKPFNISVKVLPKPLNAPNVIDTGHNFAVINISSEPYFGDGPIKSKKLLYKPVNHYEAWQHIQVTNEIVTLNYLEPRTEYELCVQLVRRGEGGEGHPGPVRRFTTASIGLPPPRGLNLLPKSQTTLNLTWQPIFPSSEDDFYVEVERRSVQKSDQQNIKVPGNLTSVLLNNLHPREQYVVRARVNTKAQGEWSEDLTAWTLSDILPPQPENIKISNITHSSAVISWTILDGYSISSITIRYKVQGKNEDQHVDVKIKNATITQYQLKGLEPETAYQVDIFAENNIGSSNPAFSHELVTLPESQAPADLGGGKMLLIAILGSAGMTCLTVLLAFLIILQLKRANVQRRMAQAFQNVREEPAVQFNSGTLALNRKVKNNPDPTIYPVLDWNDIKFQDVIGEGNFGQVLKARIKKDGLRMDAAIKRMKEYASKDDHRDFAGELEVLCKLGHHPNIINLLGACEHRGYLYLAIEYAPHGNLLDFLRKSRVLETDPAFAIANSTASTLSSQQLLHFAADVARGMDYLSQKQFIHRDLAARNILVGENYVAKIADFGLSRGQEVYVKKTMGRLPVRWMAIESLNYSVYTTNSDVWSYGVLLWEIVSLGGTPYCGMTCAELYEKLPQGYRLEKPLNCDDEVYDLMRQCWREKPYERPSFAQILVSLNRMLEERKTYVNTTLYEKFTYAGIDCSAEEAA

## CCN(CC)CCNC(=O)c1c(C)[nH]c(/C=C2\C(=O)Nc3ccc(F)cc32)c1C [Sunitinib]
TIE2 [1]
  Avg % Inhibition TIE2: 5.03%
TIE2 [1]; listed as sunitinib
  Avg % Inhibition TIE2: 5%
VEGFR1 [2]; 1uM TKI
  Avg % Inhibition VEGFR1: 77.03%
VEGFR1 [2]; 10uM TKI
  Avg % Inhibition VEGFR1: 93.14%
FGFR1; 1uM TKI
  Avg % Inhibition FGFR1: 61.61%
FGFR1; 10uM TKI
  Avg % Inhibition FGFR1: 93.09%
PDGFRβ; 1uM TKI
  Avg % Inhibition PDGFRb: 92.22%
PDGFRβ; 10uM TKI
  Avg % Inhibition PDGFRb: 97.19%
VEGFR1 [3]; 1.00E-05 M TKI
  %Activity VEGFR1: 2.53%
VEGFR1 [3]; 1.11E-06 M TKI
  %Activity VEGFR1: 20.58%
VEGFR1 [3]; 1.37E-08 M TKI
  %Activity VEGFR1: 78.18%
VEGFR1 [3]; 1.52E-09 M TKI
  %Activity VEGFR1: 84.25%
VEGFR1 [3]; 3.33E-06 M TKI
  %Activity VEGFR1: 8.53%
VEGFR1 [3]; 3.70E-07 M TKI
  %Activity VEGFR1: 35.25%
VEGFR1 [3]; 4.12E-08 M TKI
  %Activity VEGFR1: 63.70%
VEGFR1 [3]; 4.57E-09 M TKI
  %Activity VEGFR1: 84.35%
VEGFR1 [3]; 5.08E-10 M TKI
  %Activity VEGFR1: 93.32%
FGFR3
  Avg % Inhibition FGFR3: 79.29%
TIE2 [4]; 1.00E-05 M TKI
  %Activity TIE2: 44.88%
TIE2 [4]; 1.11E-06 M TKI
  %Activity TIE2: 93.41%
TIE2 [4]; 1.37E-08 M TKI
  %Activity TIE2: 98.62%
TIE2 [4]; 1.52E-09 M TKI
  %Activity TIE2: 99.65%
TIE2 [4]; 3.33E-06 M TKI
  %Activity TIE2: 74.48%
TIE2 [4]; 3.70E-07 M TKI
  %Activity TIE2: 96.23%
TIE2 [4]; 4.12E-08 M TKI
  %Activity TIE2: 95.60%
TIE2 [4]; 4.57E-09 M TKI
  %Activity TIE2: 97.42%
TIE2 [4]; 5.08E-10 M TKI
  %Activity TIE2: 95.09%
FGFR2; 1uM TKI
  Avg % Inhibition FGFR2: 77.42%
FGFR2; 10uM TKI
  Avg % Inhibition FGFR2: 98.03%
VEGFR3 [5]; 1uM TKI
  Avg % Inhibition VEGFR3: 86.7%
VEGFR3 [5]; 10uM TKI
  Avg % Inhibition VEGFR3: 99.18%
[6]; 1.00E-05 M TKI
  cumulative sprout length per spheroid (CSL), mean: 99
[6]; 1.00E-06 M TKI
  cumulative sprout length per spheroid (CSL), mean: 298
[6]; 1.00E-07 M TKI
  cumulative sprout length per spheroid (CSL), mean: 387
[6]; 3.00E-06 M TKI
  cumulative sprout length per spheroid (CSL), mean: 173
[6]; 3.00E-07 M TKI
  cumulative sprout length per spheroid (CSL), mean: 230
[6]; 3.00E-08 M TKI
  cumulative sprout length per spheroid (CSL), mean: 893
[6]; highest test concentration of 1×10^–5M
  vessel sprouting (representative spheroid images): zero vessel sprouting
[7]; TKI at 200 x VEGFR2 IC50
  Angiogenesis - Vessel number, Mean: 7
[7]; TKI at 200 x VEGFR2 IC50, one value per egg
  Angiogenesis - Vessel number, individual egg: 8.67 and 8.33 and 1.67 and 6.67 and 3.33
[7]; TKI at 200× VEGFR2 IC50 dose
  reduction of the number of blood vessels perfusing the sponges vs negative control: 49.3%
[7]; TKI at VEGFR2 IC50 dose
  Angiogenesis - Vessel thickness score, Mean: 1.8
  Angiogenesis - Vessel thickness score, individual egg: 3 and 0.67 and 2 and 2.33 and 1.33 and 1
VEGFR3 [8]; 1.00E-05 M TKI
  %Activity VEGFR3: 1.67%
VEGFR3 [8]; 1.11E-06 M TKI
  %Activity VEGFR3: 9.53%
VEGFR3 [8]; 1.23E-07 M TKI
  %Activity VEGFR3: 31.11%
VEGFR3 [8]; 1.37E-08 M TKI
  %Activity VEGFR3: 63.61%
VEGFR3 [8]; 1.52E-09 M TKI
  %Activity VEGFR3: 80.77%
VEGFR3 [8]; 3.33E-06 M TKI
  %Activity VEGFR3: 3.43%
VEGFR3 [8]; 3.70E-07 M TKI
  %Activity VEGFR3: 18.20%
VEGFR3 [8]; 4.12E-08 M TKI
  %Activity VEGFR3: 47.10%
VEGFR3 [8]; 4.57E-09 M TKI
  %Activity VEGFR3: 73.23%
VEGFR3 [8]; 5.08E-10 M TKI
  %Activity VEGFR3: 86.68%

## Bevacizumab: known anti-VEGF antibody, reference compound (positive control) in the CAM assay
[7]; [9]
  Angiogenesis - Vessel number, Mean: 11.4
  Angiogenesis - Vessel thickness score, Mean: 0.8
  Angiogenesis - Vessel thickness score, individual egg: 1.33 and 0.33 and 1.67 and 0 and 1
[7]; 0.5 mg/kg bevacizumab (20.15μM), one value per egg
  Angiogenesis - Vessel number, individual egg: 9.33 and 9.67
[7]; 0.5 mg/kg bevacizumab (20.15μM), p = 0.05
  vessel reduction compared to the negative control: 18%
